Earlier results as cited in patent US20240366636A1, “ORAL CANNABINOID PHARMACEUTICAL COMPOSITIONS AND METHODS OF TREATING INFLAMMATORY GASTROINTESTINAL DISORDERS” (Curio IP, LLC, priority 2022, published 2024).

What was measured:
[1] = humans
[2] = target: cannabinoid CB2 receptor (Homo sapiens, UniProt P34972)
[3] = system: DNBS-induced intestinal inflammation; details: murine

Sequence of cannabinoid CB2 receptor (P34972 whole entry): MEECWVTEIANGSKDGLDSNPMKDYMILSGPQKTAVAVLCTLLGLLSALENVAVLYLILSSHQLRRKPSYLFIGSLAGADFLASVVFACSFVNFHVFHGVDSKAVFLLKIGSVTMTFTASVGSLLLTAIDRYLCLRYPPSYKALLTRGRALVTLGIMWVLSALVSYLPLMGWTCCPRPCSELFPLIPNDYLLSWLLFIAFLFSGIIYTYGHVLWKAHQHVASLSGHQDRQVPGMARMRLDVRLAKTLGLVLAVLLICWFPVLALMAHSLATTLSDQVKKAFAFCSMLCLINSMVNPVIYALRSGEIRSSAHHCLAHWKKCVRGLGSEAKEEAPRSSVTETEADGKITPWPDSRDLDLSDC

C=C(C)[C@@H]1CCC(C)=C[C@H]1c1c(O)cc(CCCCC)cc1O [CBD, cannabidiol]
oral bioavailability [1]: approximately 6% | affinity for CB2 receptor [2]: low affinity

CCCCCc1cc(O)c2c(c1)OC(C)(C)[C@@H]1CCC(C)=C[C@@H]21 [THC, (−)-(6aR,10aR)-6,6,9-trimethyl-3-pentyl-6a,7,8,10a-tetrahydro-6H-benzo[c]chromen-1-ol]
peak plasma levels (following smoking of the equivalent of 10-15 mg over 5-7 minutes): around 100 μg/L | half-life (plasma, when cannabis is smoked): 2 h | Bioavailability (smoking route): 2-56%

Cannabigerol [CBG]
DNBS-induced intestinal inflammation and permeability [3]: attenuated | Interleuken-1β (IL-1β) levels ([3]; DNBS): reduced | myeloperoxidase (MPO) activity ([3]; DNBS): reduced
